From ChEMBL document CHEMBL2424552, “Cytotoxic effect of novel dehydroepiandrosterone derivatives on different cancer cell lines” (2013)

Experiments:
Format in all cases: functional
[1] = test system: PC-3; assay: Growth inhibition of human PC3 cells at 50 uM after 48 hrs by SRB assay relative to control; details: PC-3, 48 h, read-out: GI
[2] = test system: SK-LU-1; assay: Growth inhibition of human SKLU1 cells at 50 uM after 48 hrs by SRB assay relative to control; details: SK-LU-1, 48 h, read-out: GI
[3] = test system: MCF7; assay: Growth inhibition of human MCF7 cells at 50 uM after 48 hrs by SRB assay relative to control; details: MCF7, 48 h, read-out: GI

Structure (SMILES)	inhibition of growth at 50 µM [1] [%]	inhibition of growth at 50 µM [2] [%]	inhibition of growth at 50 µM [3] [%]
C[C@]12CC[C@H](OC(=O)C3CCCC3)CC1=CC[C@@H]1[C@@H]2CC[C@]2(C)C(n3cncn3)=C(C=O)C[C@@H]12	23.8	0	0
C[C@]12CC[C@H](OC(=O)C3CCCCC3)CC1=CC[C@@H]1[C@@H]2CC[C@]2(C)C(n3cncn3)=C(C=O)C[C@@H]12	0	24.9	11
C[C@]12CC[C@H](OC(=O)C3CCCCCC3)CC1=CC[C@@H]1[C@@H]2CC[C@]2(C)C(n3cncn3)=C(C=O)C[C@@H]12	36.8	94.7	78
COc1ccc(C(=O)O[C@H]2CC[C@@]3(C)C(=CC[C@@H]4[C@@H]3CC[C@]3(C)C(n5cncn5)=C(C=O)C[C@@H]43)C2)cc1	0	9.2	23
Cc1ccc(C(=O)O[C@H]2CC[C@@]3(C)C(=CC[C@@H]4[C@@H]3CC[C@]3(C)C(n5cncn5)=C(C=O)C[C@@H]43)C2)cc1	3.1	68	48.7
C[C@]12CC[C@H](OC(=O)c3ccccc3)CC1=CC[C@@H]1[C@@H]2CC[C@]2(C)C(n3cncn3)=C(C=O)C[C@@H]12	21.8	39.7	33.5
C[C@]12CC[C@H](OC(=O)c3ccc(C(F)(F)F)cc3)CC1=CC[C@@H]1[C@@H]2CC[C@]2(C)C(n3cncn3)=C(C=O)C[C@@H]12	100	89.1	100
C[C@]12CC[C@H](OC(=O)c3ccc(C#N)cc3)CC1=CC[C@@H]1[C@@H]2CC[C@]2(C)C(n3cncn3)=C(C=O)C[C@@H]12	100	89.9	100
C[C@]12CC[C@H](OC(=O)c3ccc([N+](=O)[O-])cc3)CC1=CC[C@@H]1[C@@H]2CC[C@]2(C)C(n3cncn3)=C(C=O)C[C@@H]12	85.7	100	100
COc1ccc(C(=O)O[C@H]2CC[C@@]3(C)C(=CC[C@@H]4[C@@H]3CC[C@]3(C)C(n5cccn5)=C(C=O)C[C@@H]43)C2)cc1	51.5	80	100
Cc1ccc(C(=O)O[C@H]2CC[C@@]3(C)C(=CC[C@@H]4[C@@H]3CC[C@]3(C)C(n5cccn5)=C(C=O)C[C@@H]43)C2)cc1	0	8.5	0
C[C@]12CC[C@H](OC(=O)c3ccccc3)CC1=CC[C@@H]1[C@@H]2CC[C@]2(C)C(n3cccn3)=C(C=O)C[C@@H]12	31.4	5.8	32.6
C[C@]12CC[C@H](OC(=O)c3ccc(C(F)(F)F)cc3)CC1=CC[C@@H]1[C@@H]2CC[C@]2(C)C(n3cccn3)=C(C=O)C[C@@H]12	78.2	73.3	0
C[C@]12CC[C@H](OC(=O)c3ccc(C#N)cc3)CC1=CC[C@@H]1[C@@H]2CC[C@]2(C)C(n3cccn3)=C(C=O)C[C@@H]12	30.4	22.5	81.2
C[C@]12CC[C@H](OC(=O)c3ccc([N+](=O)[O-])cc3)CC1=CC[C@@H]1[C@@H]2CC[C@]2(C)C(n3cccn3)=C(C=O)C[C@@H]12	16.7	7.5	20.2
C[C@]12CC[C@H](OC(=O)c3ccc(F)cc3)CC1=CC[C@@H]1[C@@H]2CC[C@]2(C)C(n3cccn3)=C(C=O)C[C@@H]12	20.5	5.5	50.7
C[C@]12CC[C@H](OC(=O)c3ccc(Cl)cc3)CC1=CC[C@@H]1[C@@H]2CC[C@]2(C)C(n3cccn3)=C(C=O)C[C@@H]12	24.6	20.7	32.4
C[C@]12CC[C@H](OC(=O)c3ccc(Br)cc3)CC1=CC[C@@H]1[C@@H]2CC[C@]2(C)C(n3cccn3)=C(C=O)C[C@@H]12	3.7	17.4	18.5
C[C@]12CC[C@H](OC(=O)c3ccc(I)cc3)CC1=CC[C@@H]1[C@@H]2CC[C@]2(C)C(n3cccn3)=C(C=O)C[C@@H]12	58.4	93.5	96.8
C[C@]12CC[C@H](O)CC1=CC[C@@H]1[C@@H]2CC[C@]2(C)C(n3cccn3)=C(C=O)C[C@@H]12	100	100	41.6
C[C@]12CC[C@H](OC(=O)C3CC3)CC1=CC[C@@H]1[C@@H]2CC[C@]2(C)C(n3cncn3)=C(C=O)C[C@@H]12	88.7	100	100
C[C@]12CC[C@H](OC(=O)C3CCC3)CC1=CC[C@@H]1[C@@H]2CC[C@]2(C)C(n3cncn3)=C(C=O)C[C@@H]12	0	27	16.5
CC(=O)N1CCN(c2ccc(OCC3COC(Cn4ccnc4)(c4ccc(Cl)cc4Cl)O3)cc2)CC1 (centres undefined) [KETOCONAZOLE]	88.5	73.4	95.2
